{"source": "patent US10227357B2", "about": "“Compounds and methods for kinase modulation, and indications therefor” (Plexxikon Inc., priority 2012, dated 2019)"}
{"target": "T1, c-kit kinase (Homo sapiens, UniProt P10721)", "T1 construct": "The c-kit (or kinase domain thereof) is an active kinase in AlphaScreen; poly-Histidine tag (in-house protein only) (cleaved yes); host or cells: E. coli BL21(DE3)RIL, co-expressed with PTP1B", "T1 sequence (P10721 26-976)": "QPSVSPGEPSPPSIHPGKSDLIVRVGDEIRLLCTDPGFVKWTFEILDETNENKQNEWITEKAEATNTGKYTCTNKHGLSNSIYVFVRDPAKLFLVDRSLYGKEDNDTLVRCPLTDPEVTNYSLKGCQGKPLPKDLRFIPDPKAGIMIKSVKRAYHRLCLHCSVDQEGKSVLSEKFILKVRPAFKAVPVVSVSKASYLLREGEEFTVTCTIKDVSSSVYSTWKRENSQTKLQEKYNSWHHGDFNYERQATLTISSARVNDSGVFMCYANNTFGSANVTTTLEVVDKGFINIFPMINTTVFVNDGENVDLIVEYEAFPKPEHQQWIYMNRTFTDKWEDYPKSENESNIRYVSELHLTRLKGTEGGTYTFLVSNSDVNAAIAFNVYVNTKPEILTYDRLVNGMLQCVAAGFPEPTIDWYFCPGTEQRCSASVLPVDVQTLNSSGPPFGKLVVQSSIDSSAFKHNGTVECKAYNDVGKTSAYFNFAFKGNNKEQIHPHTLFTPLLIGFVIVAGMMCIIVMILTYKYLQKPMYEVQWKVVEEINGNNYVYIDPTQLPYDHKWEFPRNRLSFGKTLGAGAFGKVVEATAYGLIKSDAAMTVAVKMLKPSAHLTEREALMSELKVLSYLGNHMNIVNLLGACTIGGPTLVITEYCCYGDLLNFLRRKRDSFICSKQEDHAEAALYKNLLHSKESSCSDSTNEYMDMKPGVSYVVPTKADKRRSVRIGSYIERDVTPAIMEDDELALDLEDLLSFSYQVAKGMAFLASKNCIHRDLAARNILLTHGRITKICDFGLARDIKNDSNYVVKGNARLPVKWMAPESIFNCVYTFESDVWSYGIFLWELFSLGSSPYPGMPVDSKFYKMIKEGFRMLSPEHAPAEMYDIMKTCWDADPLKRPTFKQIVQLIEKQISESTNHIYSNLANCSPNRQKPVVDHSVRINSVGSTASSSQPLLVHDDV", "assay": "c-Kit biochemical assay, AlphaScreen, 10 μM ATP", "settings": "c-kit biochemical inhibitory activity; read-out: Biochemical activity (IC50 μM) Kit", "protocol": "IC50 values are determined with respect to inhibition of c-Kit kinase activity, where inhibition of phosphorylation of a peptide substrate is measured as a function of compound concentration. Compounds to be tested were dissolved in DMSO to a concentration of 20 mM. These were diluted 30 μl into 120 μl of DMSO (4 mM) and 1 μl was added to an assay plate. These were then serially diluted 1:3 (50 μl to 100 μl DMSO) for a total of 8 points. Plates were prepared such that each kinase reaction is 20 μl in 1× kinase buffer (50 mM HEPES, pH 7.2, 5 mM MgCl2, 5 mM MnCl2, 0.01% NP-40, 0.2% BSA), 5% DMSO and 10 μM ATP. […] C-kit kinase was at 0.1 ng per sample. After incubation of the kinase reaction for 1 hour at room temperature, 5 μl of donor beads (Streptavidin coated beads (Perkin Elmer Life Science) final concentration 1 μg/ml) in stop buffer (50 mM EDTA in 1× kinase buffer) was added, the sample was mixed and incubated for 20 minutes at room temperature before adding 5 μl of acceptor beads (PY20 coated beads (Perkin Elmer Life Science) final concentration 1 μg/ml) in stop buffer. The samples were incubated for 60 minutes at room temperature and the signal per well was read on AlphaQuest reader. […] The signal vs. compound concentration was used to determine the IC50.\nComplementary DNA cloned from various human tissues were purchased from Invitrogen, and these were used as substrates in the PCR reactions. Specific custom synthetic oligonucleotide primers were designed to initiate the PCR product, and also to provide the appropriate restriction enzyme cleavage sites for ligation with the plasmids. The entire sequence encoding the enzyme was made through a gene synthesis procedure, using custom synthetic oligonucleotides covering the entire coding sequence (Invitrogen, see below).\nThe plasmid used for ligation with the kinase-encoding inserts was derivative of pET (Novagen) for expression using E. coli. The Kit kinase was engineered to include a Histidine tag for purification using metal affinity chromatography. The kinase-encoding plasmid was engineered as bicistronic mRNA to co-express a second protein that modifies the kinase protein during its expression in the host cell. Protein tyrosine phosphatase 1B (PTP), was co-expressed for dephosphorylation of the phospho-Tyrosines.\nFor protein expression, the plasmid containing the Kit gene was transformed into E. coli strains BL21(DE3)RIL and transformants selected for growth on LB agar plates containing appropriate antibiotics. Single colonies were grown overnight at 37° C. in 200 ml TB (Terrific broth) media. 16×1 L of fresh TB media in 2.8 L flasks were inoculated with 10 ml of overnight culture and grown with constant shaking at 37° C. Once cultures reached an absorbance of 1.0 at 600 nm, IPTG was added and cultures were allowed to grow for a further 12 to 18 hrs at temperatures ranging from 12-30° C. Cells were harvested by centrifugation and pellets frozen at […] until ready for lysis.\nFor protein Purification; frozen E. coli cell pellets were resuspended in lysis buffer and lysed using standard mechanical methods. Protein was purified via poly-Histidine tags using immobilized metal affinity purification IMAC. The Kit kinase was purified using a 3 step purification process utilizing; IMAC, size exclusion chromatography and ion exchange chromatography. The poly-Histidine tag was removed using Thrombin (Calbiochem).", "units": {"IC50": "µM"}}
{"molecule": "COc1ccc(S(=O)(=O)N2CCN(c3ncnc4[nH]ccc34)CC2)c(N)c1", "note": "[P-0190, 5-methoxy-2-[4-(7H-pyrrolo[2,3-d]pyrimidin-4-yl)piperazin-1-yl]sulfonyl-aniline]", "IC50": "10 to 200"}
{"molecule": "O=C(Nc1ccccc1)c1cc2c(N3CCN(C(=O)NCc4ccc(F)cc4)CC3)ncnc2[nH]1", "note": "[P-0193, 4-[4-[(4-fluorophenyl)methylcarbamoyl]piperazin-1-yl]-N-phenyl-7H-pyrrolo[2,3-d]pyrimidine-6-carboxamide]", "IC50": "10 to 200"}
{"molecule": "CCCC(=O)N1CCN(c2ncnc3[nH]ccc23)CC1", "note": "[P-0194, 1-[4-(7H-pyrrolo[2,3-d]pyrimidin-4-yl)piperazin-1-yl]butan-1-one]", "IC50": "10 to 200"}
{"molecule": "O=C(C1CCCCC1)N1CCN(c2ncnc3[nH]ccc23)CC1", "note": "[P-0195, cyclohexyl-[4-(7H-pyrrolo[2,3-d]pyrimidin-4-yl)piperazin-1-yl]methanone]", "IC50": "10 to 200"}
{"molecule": "O=C(C1CCCC1)N1CCN(c2ncnc3[nH]ccc23)CC1", "note": "[P-0196, cyclopentyl-[4-(7H-pyrrolo[2,3-d]pyrimidin-4-yl)piperazin-1-yl]methanone]", "IC50": "10 to 200"}
{"molecule": "CCc1ccc(C(=O)N2CCN(c3ncnc4[nH]ccc34)CC2)cc1", "note": "[P-0197, (4-ethylphenyl)-[4-(7H-pyrrolo[2,3-d]pyrimidin-4-yl)piperazin-1-yl]methanone]", "IC50": "1 to 10"}
{"molecule": "O=C(c1ccccc1)N1CCN(c2ncnc3[nH]ccc23)CC1", "note": "[P-0198, phenyl-[4-(7H-pyrrolo[2,3-d]pyrimidin-4-yl)piperazin-1-yl]methanone]", "IC50": "10 to 200"}
{"molecule": "CCCS(=O)(=O)N1CCN(c2ncnc3[nH]ccc23)CC1", "note": "[P-0199, 4-(4-propylsulfonylpiperazin-1-yl)-7H-pyrrolo[2,3-d]pyrimidine]", "IC50": "10 to 200"}
{"molecule": "O=S(=O)(c1ccccc1)N1CCN(c2ncnc3[nH]ccc23)CC1", "note": "[P-0200, 4-[4-(benzenesulfonyl)piperazin-1-yl]-7H-pyrrolo[2,3-d]pyrimidine]", "IC50": "10 to 200"}
{"molecule": "CCOc1ccc(NC(=O)N2CCN(c3ncnc4[nH]ccc34)CC2)cc1", "note": "[P-0201, N-(4-ethoxyphenyl)-4-(7H-pyrrolo[2,3-d]pyrimidin-4-yl)piperazine-1-carboxamide]", "IC50": "1 to 10"}
{"molecule": "CCc1ccc(NC(=O)N2CCN(c3ncnc4[nH]ccc34)CC2)cc1", "note": "[P-0202, N-(4-ethylphenyl)-4-(7H-pyrrolo[2,3-d]pyrimidin-4-yl)piperazine-1-carboxamide]", "IC50": "10 to 200"}
{"molecule": "CCCNC(=O)N1CCN(c2ncnc3[nH]ccc23)CC1", "note": "[P-0203, N-propyl-4-(7H-pyrrolo[2,3-d]pyrimidin-4-yl)piperazine-1-carboxamide]", "IC50": "10 to 200"}
{"molecule": "O=C(NC1CCCCC1)N1CCN(c2ncnc3[nH]ccc23)CC1", "note": "[P-0204, N-cyclohexyl-4-(7H-pyrrolo[2,3-d]pyrimidin-4-yl)piperazine-1-carboxamide]", "IC50": "10 to 200"}
{"molecule": "O=C(Nc1ccccc1)N1CCN(c2ncnc3[nH]ccc23)CC1", "note": "[P-0205, N-phenyl-4-(7H-pyrrolo[2,3-d]pyrimidin-4-yl)piperazine-1-carboxamide]", "IC50": "10 to 200"}
{"molecule": "Cc1ccccc1C(=O)c1c[nH]c2ncnc(N3CCN(c4cc(NC5CC5)ncn4)CC3)c12", "note": "[P-0206, [4-[4-[6-(cyclopropylamino)pyrimidin-4-yl]piperazin-1-yl]-7H-pyrrolo[2,3-d]pyrimidin-5-yl]-(o-tolyl)methanone]", "IC50": "10 to 200"}
{"molecule": "O=C(c1ccc(Cl)cc1)c1cc2c(N3CCN(C(=O)NCc4ccc(F)cc4)CC3)ncnc2[nH]1", "note": "[P-0207, 4-[6-(4-chlorobenzoyl)-7H-pyrrolo[2,3-d]pyrimidin-4-yl]-N-[(4-fluorophenyl)methyl]piperazine-1-carboxamide]", "IC50": "10 to 200"}
{"molecule": "O=C(c1cc2c(N3CCN(C(=O)NCc4ccc(F)cc4)CC3)ncnc2[nH]1)C1CC1", "note": "[P-0209, 4-[6-(cyclopropanecarbonyl)-7H-pyrrolo[2,3-d]pyrimidin-4-yl]-N-[(4-fluorophenyl)methyl]piperazine-1-carboxamide]", "IC50": "1 to 10"}
